Common to all, as to test: NCI anticancer screen, dose series, 48 h
In experiment [1] the test system is 786-0.
Experiment [2] has as its system CAKI-1.
Experiment [3] has as its system CCRF-CEM.
The test system of experiment [4] is COLO 205.
For experiment [5], the system named is DU-145.
In experiment [6] the test system is EKVX.
Experiment [7] relates to HCT-15.
The subject of experiment [8] is HL-60.
Experiment [9] deals with HT-29.
The subject of experiment [10] is IGROV-1.
In experiment [11] the test system is M14.
The subject of experiment [12] is MCF7.
In experiment [13] the test system is Malme-3M.
For experiment [14], the system named is NCI-H226.
Experiment [15] concerns NCI-H460.
Experiment [16] has as its system OVCAR-3.
In experiment [17] the test system is OVCAR-4.
Experiment [18] has as its system RPMI-8226.
Experiment [19] deals with SNB-19.
For experiment [20], the system named is TK-10.

The source of these data is ChEMBL document CHEMBL1201862, “PubChem BioAssay data set” (2004).

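1) Cells in 96-well plates. 2) Compound, 48 h, 5 concentrations. 3) Linear interpolation between surrounding doses. 4) Unreached endpoint = highest concentration. At the GI50, growth is halved.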 Active and inactive are the calls of the source. No stated cut-off is given here; in the data, active = GI50 up to about 1.1 µM and inactive = higher.

`CC(NNC(=O)c1cc[n+]([BH2-]C#N)cc1)C(F)(F)F` (stereo not given): the GI50 in [1], in experiment [2], in experiment [3], in [4], in experiment [5] and in experiment [6] was > 100 µM (inactive) in each case. The GI50 in experiment [7] was more than 100 µM; in [8], > 100 µM (inactive); in experiment [9], > 100 µM (inactive); in experiment [10], > 100 µM (inactive); in experiment [11], > 100 µM (inactive); in [12] it was > 100 µM (inactive). In addition, the GI50 in experiment [13], in experiment [14], in [15], in experiment [16], in experiment [17] and in [18] was > 100 µM (inactive) each time. The GI50 in experiment [19] and in experiment [20] was > 100 µM (inactive) each time.

Consider `C/N=c1\sc2nc(C#N)c(C#N)nc2n1C`, for which the GI50 was 25.8 µM (inactive) in [1]; 23.8 µM (inactive) in experiment [2]; 19.7 µM (inactive) in experiment [3]; 16.4 µM (inactive) in experiment [4]; 36.6 µM (inactive) in experiment [5]; 18.5 µM (inactive) in experiment [6]. Further, the GI50 in experiment [7] is 19.2 µM; in experiment [8], 10.9 µM (inactive); in experiment [9], 15.9 µM (inactive); in experiment [10] it was 25.2 µM (inactive); in experiment [11], 23 µM (inactive); in experiment [12], 18.5 µM (inactive). Also, the GI50 is 17.6 µM (inactive) in experiment [13]; 16.2 µM (inactive) in [14]; 19.1 µM (inactive) in experiment [15]; 24.5 µM (inactive) in experiment [16]; 22.9 µM (inactive) in [17]; 44.4 µM (inactive) in [18]. Moreover, the GI50 in [19] is 28.4 µM (inactive); in [20], 25.5 µM (inactive).

For the compound `CN(C)c1n/c(=N/Cc2ccccn2)ss1`, the GI50 was > 4.16 µM (inactive) in [1]; > 7.94 µM (inactive) in experiment [2]; 1.24 µM (inactive) in [3]; > 10 µM (inactive) in experiment [4]; > 10 µM (inactive) in experiment [5]; > 10 µM (inactive) in [6]. Further, the GI50 in [7] was 9.68 µM; in experiment [8], 2.18 µM (inactive); in experiment [9], > 10 µM (inactive); in [10], > 10 µM (inactive); in [11] it was > 8.89 µM (inactive); in experiment [12], 0.409 µM (active). In addition, the GI50 in [13] was > 4.61 µM (inactive); in experiment [14], > 10 µM (inactive); in experiment [15], > 10 µM (inactive); in experiment [16] it was > 10 µM (inactive); in [17] it was > 7.26 µM (inactive); in [18], 4.48 µM (inactive). Moreover, the GI50 in [19] and in experiment [20] was > 10 µM (inactive) throughout.

With `CC1(C)N[PH]2(Nc3ccccc3O2)OC1=O`, the GI50 in experiment [1] is > 100 µM (inactive); in experiment [2] it was 66.2 µM (inactive); in [3], 41.2 µM (inactive); in [4], 17.8 µM (inactive); in experiment [5], > 100 µM (inactive); in experiment [6], 84.3 µM (inactive). For the same compound, the GI50 in experiment [7] is 64.9 µM; in [8], 44.3 µM (inactive); in [9], > 100 µM (inactive); in experiment [10], > 100 µM (inactive); in experiment [11] it was 38.5 µM (inactive); in experiment [12], 22.8 µM (inactive). In addition, the GI50 in [13] was 38.4 µM (inactive); in [14] it was 35.9 µM (inactive); in experiment [15], 45.4 µM (inactive); in [16], > 100 µM (inactive); in [17] it was > 100 µM (inactive); in experiment [18], 5.32 µM (inactive). The values for the GI50 in [19] and in [20] were > 100 µM (inactive) and 68.2 µM (inactive), respectively.

On to `CCCC(=O)OCC1OC(n2cc(F)c(=O)[nH]c2=O)C(F)C1O` (stereo not given), for which the GI50 was 30.6 µM (inactive) in experiment [1]; > 10 µM (inactive) in [2]; 2.24 µM (inactive) in [3]; 24.5 µM (inactive) in experiment [4]; 5.5 µM (inactive) in experiment [5]; > 71.4 µM (inactive) in [6]. In addition, the GI50 in experiment [7] is more than 84.7 µM; in [8], > 100 µM (inactive); in [9] it was > 86.3 µM (inactive); in experiment [10], > 76.7 µM (inactive); in experiment [11], 18.8 µM (inactive); in [12], 0.456 µM (active). Also, the GI50 is > 80 µM (inactive) in [13]; 99.3 µM (inactive) in experiment [14]; 2.86 µM (inactive) in [15]; 31 µM (inactive) in [16]; > 100 µM (inactive) in experiment [17]; 6.3 µM (inactive) in experiment [18]. The figures for the GI50 in experiment [19] and in experiment [20] were 78.5 µM (inactive) and > 100 µM (inactive), respectively.

Turning to `CC1(C)CC[C@]2(C(=O)O)CC[C@]3(C)C(=CC[C@@H]4[C@@]5(C)C[C@H](O)[C@H](O)[C@@](C)(C(=O)O)[C@@H]5CC[C@]43C)[C@@H]2C1`, the GI50 in [1], in experiment [2], in experiment [3], in experiment [4], in experiment [5] and in experiment [6] was > 100 µM (inactive) throughout. The GI50 was more than 100 µM in experiment [7]; > 31.6 µM (inactive) in [8]; > 100 µM (inactive) in experiment [9]; > 89.3 µM (inactive) in experiment [10]; > 100 µM (inactive) in [11]; > 100 µM (inactive) in [12]. For the same compound, the GI50 was > 100 µM (inactive) in experiment [13]; > 90.8 µM (inactive) in [14]; > 100 µM (inactive) in experiment [15]; > 100 µM (inactive) in experiment [16]; > 82.2 µM (inactive) in [17]; > 86.9 µM (inactive) in experiment [18]. Also, the GI50 in experiment [19] and in [20] was > 100 µM (inactive) in each case.

On to `O=C(/C(=C\I)c1ccccc1)c1ccccc1`, for which the GI50 in experiment [1] is 3.52 µM (inactive); in experiment [2], 1.51 µM (inactive); in experiment [3], 14.5 µM (inactive); in [4], 3.63 µM (inactive); in experiment [5], 7.16 µM (inactive); in experiment [6], 18.3 µM (inactive). Further, the GI50 in experiment [7] is 3.33 µM; in experiment [8], 0.458 µM (active); in [9], 1.93 µM (inactive); in [10] it was 10.8 µM (inactive); in [11] it was 15 µM (inactive); in experiment [12] it was 1.8 µM (inactive). Further, the GI50 in experiment [13] was 7.31 µM (inactive); in [14] it was 24.6 µM (inactive); in experiment [15], 10.9 µM (inactive); in experiment [16], 2.24 µM (inactive); in experiment [17], 6.7 µM (inactive); in [18], 2.48 µM (inactive). Also, the results for the GI50 in experiment [19] and in [20] were 8.95 µM (inactive) and 16 µM (inactive), respectively.

`CC1=NN(c2nc(N)nc(/C(C#N)=C/c3cccn3-c3cc(Cl)cc(Cl)c3)n2)C(C)(C)C1`: the GI50 in experiment [1] was > 100 µM (inactive); in experiment [2] it was > 100 µM (inactive); in [3] it was 4.47 µM (inactive); in experiment [4], > 100 µM (inactive); in experiment [5], > 100 µM (inactive); in experiment [6], > 100 µM (inactive). For the same compound, the GI50 in [7] was more than 100 µM; in experiment [8] it was 14.8 µM (inactive); in [9] it was > 100 µM (inactive); in experiment [10], > 100 µM (inactive); in experiment [11], > 100 µM (inactive); in [12], > 100 µM (inactive). Further, the GI50 in experiment [13], in experiment [14], in experiment [15], in experiment [16], in experiment [17] and in experiment [18] was > 100 µM (inactive) in each case. The values for the GI50 in experiment [19] and in [20] were 40.6 µM (inactive) and > 100 µM (inactive), respectively.

Take `CC(=O)OC12c3ccccc3-c3ccccc3C1C(C(=O)O)C2(Cl)C(=O)O` (stereo not given): the GI50 in experiment [1], in [2], in [3], in experiment [4], in [5] and in [6] was > 10 µM (inactive) throughout. The GI50 was more than 10 µM in experiment [7]; > 10 µM (inactive) in experiment [8]; > 10 µM (inactive) in [9]; > 10 µM (inactive) in experiment [10]; > 10 µM (inactive) in experiment [11]; > 10 µM (inactive) in experiment [12]. In addition, the GI50 in [13], in experiment [14], in experiment [15], in experiment [16], in experiment [17] and in [18] was > 10 µM (inactive) in each case. Also, the GI50 in [19] and in experiment [20] was > 10 µM (inactive) each time.

In the case of `Cc1ccc(/N=C2N=C(Cl)/C(=C\c3ccco3)N\2)cc1`, the GI50 in experiment [1], in [2], in experiment [3], in experiment [4], in experiment [5] and in experiment [6] was > 100 µM (inactive) each time. Further, the GI50 in experiment [7] is more than 100 µM; in experiment [8], > 100 µM (inactive); in experiment [9], > 100 µM (inactive); in experiment [10], > 100 µM (inactive); in [11], > 100 µM (inactive); in experiment [12], > 100 µM (inactive). Besides, the GI50 in experiment [13] was > 100 µM (inactive); in experiment [14] it was > 100 µM (inactive); in [15] it was > 100 µM (inactive); in experiment [16] it was > 100 µM (inactive); in [17], > 100 µM (inactive); in experiment [18], > 87.1 µM (inactive). The GI50 in [19] and in experiment [20] was > 100 µM (inactive) in each case.
